# Test results as given in patent US7662977B2, “PI-3 kinase inhibitor prodrugs” (Semafore Pharmaceuticals, Inc., priority 2003, dated 2010).
# Peptide text beside a SMILES is read from it. * marks the point of attachment. X1 = O=C(CCC(=O)*)OC[N+]1(c2cc(=O)c3cccc(-c4ccccc4)c3o2)CCOCC1
# How the values were obtained:
# nude mice = assay: Acute toxicity after intravenous injection in nude mice; format: in vivo
# Description: (§1) In order to prepare the acetoxymethyl quarternary salt of Compound 1101, 1.0 g Compound 1101 was dissolved in 10 ml dry acetonitrile in a glass vial, and 1.0 g bromomethyl acetate (2.0 equivalents) was added and allowed to stir at room temperature overnight. LCMS indicated presence of starting material, so the reaction was heated at 65° C. in an oil bath for 8 hours. The mother liquors were decanted from the solid and the solids washed with a small amount of cold acetonitrile. The solid was dried in a vacuum dessicator overnight. The product was identified as 264 mg of a white solid with a retention time of 2.204 minutes, M+=380 which was 97% pure. […] Additionally, 250 uL of this 32.5 mM solution of compound A040-70 was administered to a nude mouse by oral gavage.
# Intravenously administered Compound 1 was determined to have a 100% mortality within 5 minutes of administration in three nude mice at a dose level of 16 mg/kg.
# J774 macrophages [1] = assay: Phagocytosis of sensitized sRBCs in J774 macrophages (class I PI-3 kinase-dependent pathway); format: cell-based; details: for phagocytic index (PGI): 5 μM
# Description: The columns indicate phagocytic index or percentage of cells positive for phagocytic response. The phagocytic index is the number of sRBC's (sheep red blood cells) found per 100 J774 cells and the % of phagocytic cells is the % of J774 cells that have phagocytized at least 1 sRBC. The error bars represent standard deviation of mean.
# The bioactivity of LY294002 (Compound 1) was determined by assaying phagocytosis in J774 macrophages, which is a class I PI-3 kinase-dependent pathway. Briefly, […] DMSO control for 1 h in DMEM with 10% FCS and then sensitized sRBCs (sheep red blood cells) was added at a target to effector ratio equal to 100:[…] Cells were exposed to hypotonic shock to remove red blood cells and phagocytosis was determined by measurement of hemoglobin concentration in the cell lysates. […]
# [2] = test system: EDC-CBF1 endothelial cells; assay: Tube formation of EDC-CBF1 endothelial cells on Matrigel; format: cell-based; details: overnight
# Description: In this example it was determined to what degree PI 3 kinase inhibitors (including targeted PI3 kinase inhibitor prodrugs) could inhibit tube formation. Matrigel was plated into 12-well plate wells and solidified in 37° C. for 2 hours. 1×10^5 EDC-CBF1 endothelial cells were then put on the top of the Matrigel layer in the presence of PBS, RADfV (cyclic negative control peptide), RGDfV (cyclic positive control peptide), RADS (linear negative control peptide), compound 1, or Compound 1126 at 20° M concentration overnight. Pictures were then taken using a microscope.
# [3] = test system: p53 transcriptional activity; assay: p53 luciferase (transcriptional activity) in HBECs; format: cell-based; details: for induction of p53 luciferase activity versus control: HBECs, Compound 1: 6 hour exposure
# From the text: This experiment tested the effect of PI 3 kinase inhibitors (Compound 1 and the targeted prodrug version of Compound 1; Compound 1126) on the induction of p53 luciferase activity. The transfection procedure was similar to that described in the literature to monitor p53 transcription.
# J774 macrophages [4] = assay: Phagocytosis of sensitized sRBCs in J774 macrophages (class I PI-3 kinase-dependent pathway); format: cell-based
# [5] = Reversibility of prodrugs to compound 1 in aqueous phosphate buffer (LC-MS over time); details: for half-life: phosphate buffer
# Description: Prodrug Compounds were dissolved in water or in DMSO (if not freely soluble in water) and then diluted at least 10-fold into 50 mM phosphate buffer at pH=7.4 or pH=4.8 and allowed to stand at room temperature. The final concentration of the compounds in aqueous environment ranged from 50 to 500 uMolar.
# [6] = test system: human non-small cell lung cancer cells: H1299; assay: H1299 non-small cell lung cancer xenograft in nude mice; format: in vivo
# Description: Male nude mice of 4-6 weeks in age weighing around 30 grams were inoculated subcutaneously in the right flank with 5 million tumor cells (human non-small cell lung cancer cells: H1299) on day 0. After 14 days of allowing the tumors to grow the animals were divided into 3 groups of 5 animals each. One group received vehicle control alone. One group received twice-per-day tail vein injections (i.v) of 50 uL volume of 24.4 millimolar solution of Compound 1126 in phosphate buffered saline corresponding to 25 mg/kg/day dosing level of the active component of the prodrug (i.e. compound 1). The last group received twice-per-day tail vein injections (i.v) of 50 uL volume of 4.9 millimolar solution of Compound 1126 in phosphate buffered saline corresponding to 5 mg/kg/day dosing level of the active component of the prodrug (compound 1). The tumors were measured every three days using calipers to determine the tumor volume and the animals weights were recorded when the animals were sacrificed on day 27. The results are shown in Table 7 and indicate strong tumor volume reduction versus control for both dose levels at the first datapoint only 3 days after treatment (Day 17) and continuing through to the end of the study: […]
# [7] = test system: human brain cancer cell line (U87MG); assay: U87MG brain cancer xenograft model; format: in vivo; details: 25 mg/kg/day; for % Tumor Volume Reduction compared to vehicle only control: treatment from day 7, U87MG xenograft
# Description: Male nude mice of 4-6 weeks in age weighing around 30 grams were inoculated subcutaneously in the right flank with 5 million tumor cells (human non-small cell lung cancer cells: H1299) on day 0. After 14 days of allowing the tumors to grow the animals were divided into 3 groups of 5 animals each. One group received vehicle control alone. One group received twice-per-day tail vein injections (i.v) of 50 uL volume of 24.4 millimolar solution of Compound 1126 in phosphate buffered saline corresponding to 25 mg/kg/day dosing level of the active component of the prodrug (i.e. compound 1). The last group received twice-per-day tail vein injections (i.v) of 50 uL volume of 4.9 millimolar solution of Compound 1126 in phosphate buffered saline corresponding to 5 mg/kg/day dosing level of the active component of the prodrug (compound 1). The tumors were measured every three days using calipers to determine the tumor volume and the animals weights were recorded when the animals were sacrificed on day 27. The results are shown in Table 7 and indicate strong tumor volume reduction versus control for both dose levels at the first datapoint only 3 days after treatment (Day 17) and continuing through to the end of the study:
# An animal study was run as described in Example above except using a human brain cancer cell line (U87MG) and with treatment starting on day 7 such that the first tumor volume measurement occurred on day 10.
# [8] = Water solubility / solution in phosphate buffered saline; format: physicochemical
# Description: as §1
# [9] = portion not accumulated in the skeleton; cited from earlier work
# [10] = 20 uM, exposure-limited: 20 minute exposure then removal of test solution, solvent blank 163
compound,measurement,setting,value
2-(4-morpholinyl)-8-phenyl-4H-1-benzopyran-4-one [Compound 1],observed effects after injection,"nude mice; mice, injection of 1.04 uMoles",immediate death in three out of three mice
"O=c1cc(N2CCOCC2)oc2c(-c3ccccc3)cccc12 [Compound 1, 2-(4-morpholinyl)-8-phenyl-4H-1-benzopyran-4-one]",blocking of phagocytosis,"J774 macrophages [1]; LY294002 at 10, 1 and 0.1 μM for 1 h, J774 cells",significantly blocked phagocytosis at all concentrations in a dose dependent manner
same,mortality,"nude mice; nude, mouse, in vivo, iv, 16 mg/kg, 5 min",100%
same,tube formation compared with PBS control,[2],significantly less
same,induction of p53 luciferase activity versus control,[3],more than two fold higher
same,phagocytic index (PGI),J774 macrophages [4]; [10],190
CC(C)(C)OC(=O)CCC(=O)OC[N+]1(c2cc(=O)c3cccc(-c4ccccc4)c3o2)CCOCC1 [Compound 1110],half-life,[5]; pH 4.8,> 120 h
same,half-life,[5]; pH 7.4,~10 h
N=C(N)NCCCC(NC(=O)CCC(=O)OC[N+]1(c2cc(=O)c3cccc(-c4ccccc4)c3o2)CCOCC1)C(=O)NCC(=O)NC(CC(=O)O)C(=O)NC(CO)C(=O)O (centres unmarked) [Compound 1126] (X1-RGDS-OH; configuration not given here),phagocytic index (PGI),J774 macrophages [1]; aqueous pH=7 incubation time 2 hours,88
same,phagocytic index (PGI),J774 macrophages [1]; aqueous pH=7 incubation time 5 hours,78
same,phagocytic index (PGI),J774 macrophages [1]; aqueous pH=7 incubation time 10 hours,37
same,phagocytic index (PGI),J774 macrophages [1]; time zero with no preincubation,140
same,mortality,"nude mice; intravenous, 22 mg/kg, three nude mice, after 1 hour of observation",0%
same,% Tumor Volume Reduction compared to vehicle only control,"[6]; 5 mg/kg/day i.v. twice per day from day 14, H1299, Day 17",29%
same,% Tumor Volume Reduction compared to vehicle only control,"[6]; 5 mg/kg/day i.v. twice per day from day 14, H1299, Day 20",50%
same,% Tumor Volume Reduction compared to vehicle only control,"[6]; 5 mg/kg/day i.v. twice per day from day 14, H1299, Day 24",44%
same,% Tumor Volume Reduction compared to vehicle only control,"[6]; 5 mg/kg/day i.v. twice per day from day 14, H1299, Day 27",35%
same,% Tumor Volume Reduction compared to vehicle only control,"[6]; 25 mg/kg/day i.v. twice per day from day 14, H1299, Day 17",35%
same,% Tumor Volume Reduction compared to vehicle only control,"[6]; 25 mg/kg/day i.v. twice per day from day 14, H1299, Day 20",66%
same,% Tumor Volume Reduction compared to vehicle only control,"[6]; 25 mg/kg/day i.v. twice per day from day 14, H1299, Day 24",68%
same,% Tumor Volume Reduction compared to vehicle only control,"[6]; 25 mg/kg/day i.v. twice per day from day 14, H1299, Day 27",68%
same,"animal body weights, control group versus the two treatment groups","[6]; day 27, 25 and 5 mg/kg/day i.v., nude mice",lack of statistically significant difference
same,tolerability of twice per day doses,"[6]; two week administration period, 25 and 5 mg/kg/day i.v., nude mice",well tolerated
same,toxicity in U87MG xenograft study,[7],desirable lack of toxicity
same,% Tumor Volume Reduction compared to vehicle only control,[7]; Day 10,20.2%
same,% Tumor Volume Reduction compared to vehicle only control,[7]; Day 14,52.6%
same,% Tumor Volume Reduction compared to vehicle only control,[7]; Day 17,38.5%
same,% Tumor Volume Reduction compared to vehicle only control,[7]; Day 21,35.2%
same,tube formation compared with PBS control,[2],significantly less
same,induction of p53 luciferase activity versus control,[3],~3 fold
same,phagocytic index (PGI),"J774 macrophages [4]; 1 uM, 20 minute incubation, removal, then 2 hours for phagocytosis, 0 uM gave 213",206
same,phagocytic index (PGI),"J774 macrophages [4]; 3 uM, 20 minute incubation, removal, then 2 hours for phagocytosis, 0 uM gave 213",143
same,phagocytic index (PGI),"J774 macrophages [4]; 10 uM, 20 minute incubation, removal, then 2 hours for phagocytosis, 0 uM gave 213",33
same,phagocytic index (PGI),J774 macrophages [4]; [10],50
CN1CC(=O)N(c2ccc(C(=O)OC[N+]3(c4cc(=O)c5cccc(-c6ccccc6)c5o4)CCOCC3)cc2)C1=S [Compound A017-59],conversion back to compound 1,"[5]; phosphate buffer at pH=7.4, over a 17 hour period",significant amounts of this compound converted back to compound 1
COCCOCCOCCOCCC(=O)OC[N+]1(c2cc(=O)c3cccc(-c4ccccc4)c3o2)CCOCC1 [Compound A027-85],half-life,[5]; pH 7.4,~3 h
CC(=O)OC[N+]1(c2cc(=O)c3cccc(-c4ccccc4)c3o2)CCOCC1 [Compound A040-70],water solubility,[8],very high water solubility
same,concentration of solution prepared in phosphate buffered saline,"[8]; 27 mg in 1.865 mL PBS, resulting pH around 4",32.5 millimolar
same,half-life,[5]; pH 7.4,~10 h
O=C(CCC(=O)OC[N+]1(c2cc(=O)c3cccc(-c4ccccc4)c3o2)CCOCC1)NCc1ccc(C(=O)NCCN(CCN(CP(=O)(O)O)CP(=O)(O)O)CCN(CP(=O)(O)O)CP(=O)(O)O)cc1 [Compound A046-89P],conversion back to compound 1,"[5]; after 24 hours standing at pH=7.0, phosphate buffer",converted completely back to compound 1
O=P([O-])(O)CN(CCN(CP(=O)([O-])O)CP(=O)(O)O)CP(=O)([O-])O.[153Sm+3] [^153Sm-EDTMP],time after administration at which excretion is almost complete,[9],≤ 6 h
Cc1ccc(C(=O)Cn2c3c(sc2=N)CCCC3)cc1 [pifithrin alpha],effect on induction of p53 function by Compound 1 and Compound 1126,[3]; 20 uM concentration,abrogated
"arg-gly-asp-ser [RGDS, reference compound]",tube formation compared with PBS control,[2],not much difference
same,phagocytic index (PGI),J774 macrophages [4]; [10],170
